In US12692302B2, “Uses of IL-13 antagonists for treating atopic dermatitis” (Genentech, Inc., priority 2016, dated 2026):

Tested on: patients with persistent moderate to severe atopic dermatitis inadequately controlled by TCS
Assay: Clinical Study I (phase II, lebrikizumab + TCS vs placebo + TCS): efficacy outcomes
Type: in vivo, human
Settings: for Change from baseline Pruritus VAS, mean % change / Change from baseline Pruritus VAS, placebo-corrected differences / Change from baseline in EASI, mean % change / Change from baseline in EASI, placebo-corrected differences / Patients maintaining EASI-50 response at Weeks 12 and 20, % / Patients maintaining EASI-50 response at Weeks 12 and 20, placebo-corrected differences / Patients maintaining EASI-75 response at Weeks 12 and 20, % / Patients maintaining EASI-75 response at Weeks 12 and 20, placebo-corrected differences / Patients maintaining IGA 0/1 response at Weeks 12 and 20, % / Patients maintaining IGA 0/1 response at Weeks 12 and 20, placebo-corrected differences / Patients maintaining SCORAD-50 response at Weeks 12 and 20, % / Patients maintaining SCORAD-50 response at Weeks 12 and 20, placebo-corrected differences: Week 20
Procedure: Clinical Study I was a phase II, randomized, double-blind, placebo-controlled study to evaluate the safety and efficacy of lebrikizumab in patients (age 18-75) with persistent moderate to severe atopic dermatitis that is inadequately controlled by topical corticosteroids (TCS). In this Study, lebrikizumab was tested in combination with TCS.
The inclusion criteria included the following: age 18 to 75 years; AD diagnosed by the Hanifin/Rajka criteria and that had been present for at least 1 year at screening; moderate to severe AD as graded by the Rajka/Langeland criteria at screening; history of inadequate response to a 1 month (within the 3 months prior to the screening visit) treatment regimen of at least daily TCS and regular emollient for treatment of AD; EASI score 14 at screening and end of the run-in period (Visit 3), IGA score 3 (5-point scale) at screening and end of the run-in period (Visit 3); AD involvement of 10% body surface area (BSA) at screening; and Pruritus VAS score (measured as part of the SCORAD) of 3 at screening.
Run-in Period. Following the screening visit, eligible patients entered a 2-week run-in period (Days −14 to −1) during which a protocol-specified topical therapy regimen was initiated. On the first day of the run-in period (Day −14) patients received TCS for use throughout the run-in period. Patients were required to apply the following topical therapy regimen daily: emollient to all xerotic skin surfaces, at least once daily; TCS cream consisting of medium potency TCS (triamcinolone acetonide 0.1%), two times per day, only to all active skin lesions.
Treatment Period. […] The plan was to randomize approximately 200 patients (1:1:1:1) to one of the following four treatment groups (see FIG. 1): (1) Group 1: lebrikizumab 250 mg administered subcutaneously (SC) single dose (Day 1) followed by 2 placebo doses (at Week 4 and at Week 8) for a total of 3 doses+TCS cream; (2) Group 2: lebrikizumab 125 mg SC single dose (Day 1) followed by 2 placebo doses (Week 4 and Week 8) for a total of 3 doses+TCS cream; (3) Group 3: lebrikizumab 125 mg SC every 4 weeks (Q4W) for a total of 3 doses+TCS cream; and (4) Group 4: placebo SC Q4W for a total of 3 doses+TCS cream. Three active doses were included to characterize both exposure-response relationships and dosing frequency requirements.
Patients randomized to these four study treatment groups received study drug (lebrikizumab or placebo SC) in combination with TCS. Throughout the 12-week treatment period these patients continued to apply emollient at least once daily and triamcinolone acetonide 0.1% cream as described in the run-in period (two times per day to all active skin lesions on the body). […] Patients recorded their use of topical creams and responded to PRO-related questions using a hand held eDiary throughout the treatment period. At each study visit the patient was required to bring their TCS containers to the study site to be weighed.
Efficacy Outcome Measures. The primary efficacy outcome measure was the percentage of patients achieving EASI-50 (a 50% reduction in EASI score from baseline) at Week 12. […]

[1] = 125 mg Q4W + TCS BID (n = 51), Week 12
[2] = 125 mg Q4W + TCS BID (n = 51), Week 12, listed as Lebri
[3] = 125 mg once every four weeks + TCS, Week 12, post hoc analysis
[4] = 125 mg single dose + TCS BID (n = 52), Week 12

In the case of “lebrikizumab: monoclonal humanized anti-IL-13 IgG4 antibody; heavy chain SEQ ID NO: 11, light chain SEQ ID NO: 12; formulated at 125 mg/mL in prefilled syringe”, the “% Patients achieving EASI-50” value [1] is reported as 82.4%, the “% Patients achieving EASI-50, placebo-corrected changes” value [1] is reported as 20.1% and the “% Patients achieving EASI-75” value [1] is reported as 54.9%. For the same substance, the “% Patients achieving EASI-75, placebo-corrected changes” value [1] was 20.9%, the “% Patients achieving IGA 0/1” value [1] was “(33.3) %” and the “% Patients achieving IGA 0/1, placebo-corrected change” value [1] was 14.5%. For the same substance, the “% Patients achieving SCORAD-50” value [1] was 51.0%, the “% Patients achieving SCORAD-50, placebo-corrected change” value [1] was 24.6% and the “% Patients achieving SCORAD-75” value [1] was “(21.6) %”. For the same substance, the “% change from baseline in AD Specific health-related QoL - ADIQ, mean” value [1] was −54.3%, the “% change from baseline in ADIQ, placebo-corrected change” value [1] was −25.3% and the “% change from baseline in Pruritus VAS (from SCORAD), mean” value [1] was −40.71%. For the same substance, the “% change from baseline in Pruritus VAS (from SCORAD), placebo-corrected change” value [1] was −13.7%, the “% change from baseline in Sleep Loss VAS (from SCORAD), mean” value [1] was −53.6% and the “% change from baseline in Sleep Loss VAS (from SCORAD), placebo-corrected change” value [1] was −31.0%. The “DLQI, % change from baseline, adjusted mean” value [1] was −43.12%, the “DLQI, % change from baseline, Δ vs placebo” value [1] was −9.55% and the “SCORAD score % change from baseline, adjusted mean” value [1] was −53.5%. The “SCORAD score % change from baseline, Δ vs placebo” value [1] was −18.0%, the “Total % BSA affected, % change from baseline, adjusted mean” value [1] was −57.7% and the “Total % BSA affected, % change from baseline, Δ vs placebo” value [1] was −10.3%. The “% Patients achieving EASI-50” value [2] was “(82.4) %”, the “% Patients achieving EASI-75” value [2] was “(54.9) %” and the “% Patients achieving SCORAD-50” value [2] was “(51.0) %”. For the same substance, the “reduction in BSA affected” value (125 mg Q4W + TCS, Week 12) was 57.7%, the “Change from baseline Pruritus VAS, mean % change” value (125 mg Q4W + TCS) was −35.23% and the “Change from baseline Pruritus VAS, placebo-corrected differences” value (125 mg Q4W + TCS) was −13.76%. The “Change from baseline in EASI, mean % change” value (125 mg Q4W + TCS) was −71.1%, the “Change from baseline in EASI, placebo-corrected differences” value (125 mg Q4W + TCS) was −17.08% and the “Patients maintaining EASI-50 response at Weeks 12 and 20, %” value (125 mg Q4W + TCS) was “(90.5) %”. The “Patients maintaining EASI-50 response at Weeks 12 and 20, placebo-corrected differences” value (125 mg Q4W + TCS) was 17.75%, the “Patients maintaining EASI-75 response at Weeks 12 and 20, %” value (125 mg Q4W + TCS) was “(75.0) %” and the “Patients maintaining EASI-75 response at Weeks 12 and 20, placebo-corrected differences” value (125 mg Q4W + TCS) was 8.33%. For the same substance, the “Patients maintaining IGA 0/1 response at Weeks 12 and 20, %” value (125 mg Q4W + TCS) was “(70.6) %”, the “Patients maintaining IGA 0/1 response at Weeks 12 and 20, placebo-corrected differences” value (125 mg Q4W + TCS) was 10.59% and the “Patients maintaining SCORAD-50 response at Weeks 12 and 20, %” value (125 mg Q4W + TCS) was “(50.0) %”. The “Patients maintaining SCORAD-50 response at Weeks 12 and 20, placebo-corrected differences” value (125 mg Q4W + TCS) was −28.60%, the “Change from baseline Pruritus VAS, mean % change” value (125 mg SD + TCS) was −27.59% and the “Change from baseline Pruritus VAS, placebo-corrected differences” value (125 mg SD + TCS) was −6.13%. The “Change from baseline in EASI, mean % change” value (125 mg SD + TCS) was −62.1%, the “Change from baseline in EASI, placebo-corrected differences” value (125 mg SD + TCS) was −8.08% and the “Patients maintaining EASI-50 response at Weeks 12 and 20, %” value (125 mg SD + TCS) was “(80.6) %”. For the same substance, the “Patients maintaining EASI-50 response at Weeks 12 and 20, placebo-corrected differences” value (125 mg SD + TCS) was 7.83%, the “Patients maintaining EASI-75 response at Weeks 12 and 20, %” value (125 mg SD + TCS) was “(45.0) %” and the “Patients maintaining EASI-75 response at Weeks 12 and 20, placebo-corrected differences” value (125 mg SD + TCS) was −21.70%. For the same substance, the “Patients maintaining IGA 0/1 response at Weeks 12 and 20, %” value (125 mg SD + TCS) was “(54.5) %”, the “Patients maintaining IGA 0/1 response at Weeks 12 and 20, placebo-corrected differences” value (125 mg SD + TCS) was −5.45% and the “Patients maintaining SCORAD-50 response at Weeks 12 and 20, %” value (125 mg SD + TCS) was “(61.1) %”. For the same substance, the “Patients maintaining SCORAD-50 response at Weeks 12 and 20, placebo-corrected differences” value (125 mg SD + TCS) was −17.50%, the “ADIQ reduction from screening” value [3] was 64.7% and the “Pruritus VAS reduction from screening” value [3] was 55.2%. The “Sleep Loss VAS reduction from screening” value [3] was 61.5%, the “placebo corrected change in EASI (difference between lebrikizumab treatment and placebo)” value (125 mg once every four weeks for 12 weeks + TCS, P=0.025) was 17.4% and the “% change (decrease) from baseline in EASI” value (125 mg once every four weeks for 12 weeks + TCS, modified intention-to-treat population) was 70.5%. The “% Patients achieving EASI-50” value [4] was “(69.2) %”, the “% Patients achieving EASI-50, placebo-corrected changes” value [4] was 7.0% and the “% Patients achieving EASI-75” value [4] was “(38.5) %”. The “% Patients achieving EASI-75, placebo-corrected changes” value [4] was 4.5%, the “% Patients achieving IGA 0/1” value [4] was “(21.2) %” and the “% Patients achieving IGA 0/1, placebo-corrected change” value [4] was 2.3%. The “% Patients achieving SCORAD-50” value [4] was “(34.6) %”, the “% Patients achieving SCORAD-50, placebo-corrected change” value [4] was 8.2% and the “% Patients achieving SCORAD-75” value [4] was “(13.5) %”. The “% change from baseline in AD Specific health-related QoL - ADIQ, mean” value [4] was −33.9%.
